Assay results as given in patent publication US9079866B2, “Flap modulators” (JANSSEN PHARMACEUTICA NV, priority 2013, dated 2015).
Where a name gives a salt, the structure may show the parent alone. Read-outs that look alike come from different tables or passages of the source.

How the values were obtained:
[1] = system: leukotriene pathway in human whole blood (LTB4 levels); experiment: Human whole blood assay (A23187-stimulated LTB4); format: cell-based; settings: Homo sapiens, read-out: LTB4 IC50 1:1
How it was run: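 Compounds are pre-incubated 15 min at 37° Celsius in RPMI-diluted (1:1) heparinised whole blood before a 30 min A23187 stimulus (7 μg/mL). Plasma LTB4 is read by immunoassay kit, with IC50 calculated from a 4-parameter equation.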

[2] = biological target: human FLAP (Homo sapiens (Human), UniProt P20292); experiment: FLAP binding assay (HTRF format)
human FLAP, sequence (P20292 whole entry): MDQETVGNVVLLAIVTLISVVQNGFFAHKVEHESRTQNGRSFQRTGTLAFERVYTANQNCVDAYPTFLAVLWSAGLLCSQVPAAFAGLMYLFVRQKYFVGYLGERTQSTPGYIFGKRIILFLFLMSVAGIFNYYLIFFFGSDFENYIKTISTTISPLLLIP
How it was run: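 Samples were run in duplicate on each of two assay plates, the results were averaged, and the signal was expressed as an HTRF ratio.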

[3] = human whole blood diluted 1:1, A23187-stimulated
[4] = human whole blood diluted 1:1 in RPMI, A23187-stimulated LTB4
[5] = human FLAP wild type, HTRF format, average of two plates, duplicates

CC(C)(C)NS(=O)(=O)c1ccccc1-c1ccc(-c2cnc3c(c2)CCN3)c(F)c1 [Example 431, N-tert-Butyl-4′-(2,3-dihydro-1H-pyrrolo[2,3-b]pyridin-5-yl)-3′-fluorobiphenyl-2-sulfonamide]
IC50 [1, 3]: 9 nM | Ki ([2]; wild type FLAP, HTRF format): 1 nM

Nc1cnc(-c2ccc(-c3ccccc3S(=O)(=O)N[C@H](c3ccccc3)C(F)(F)F)cc2F)cn1 [Example 18, (R)-4′-(5-Aminopyrazin-2-yl)-3′-fluoro-N-[(1R)-2,2,2-trifluoro-1-phenylethyl]biphenyl-2-sulfonamide]
IC50 [1, 4]: 70 nM | Ki [2, 5]: 2 nM

CC(C)(C)NS(=O)(=O)c1ccccc1-c1ccc(-c2cnc(N)c(C#N)c2)c(F)c1 [Example 450, 4′-(6-Amino-5-cyanopyridin-3-yl)-N-tert-butyl-3′-fluorobiphenyl-2-sulfonamide trifluoroacetic acid salt]
IC50 [1, 3]: 340 nM | Ki ([2]; wild type FLAP, HTRF format): 74 nM

Nc1ccc(-c2ccc(-c3ccccc3S(=O)(=O)N3CCC(CO)CC3)cc2F)cn1 [Example 361, (1-((4′-(6-Aminopyridin-3-yl)-3′-fluoro-[1,1′-biphenyl]-2-yl)sulfonyl)piperidin-4-yl)methanol]
IC50 [1, 4]: 26 nM | Ki [2, 5]: 5 nM

N#Cc1nc(N)ccc1-c1ccc(-c2ccccc2S(=O)(=O)C2CC2)cc1F [Example 443, 6-Amino-3-(2′-(cyclopropylsulfonyl)-3-fluoro-[1,1′-biphenyl]-4-yl)picolinonitrile]
IC50 [1, 3]: 3330 nM | Ki ([2]; wild type FLAP, HTRF format): 343 nM

Nc1cnc(-c2ccc(-c3ccccc3S(=O)(=O)N3CC[C@H](CO)C3)cc2F)cn1 [Example 112, (S)-(1-{[4′-(5-Aminopyrazin-2-yl)-3′-fluorobiphenyl-2-yl]sulfonyl}pyrrolidin-3-yl)methanol]
IC50 [1, 4]: 154 nM | Ki [2, 5]: 7 nM

CCN(CC)C(=O)CSc1ccccc1-c1ccc(-c2cnc(N)cn2)c(F)c1 [Example 201, 2-{[4′-(5-Aminopyrazin-2-yl)-3′-fluorobiphenyl-2-yl]sulfanyl}-N,N-diethylacetamide]
IC50 [1, 4]: 358 nM | Ki [2, 5]: 21 nM

Nc1ncc(-c2ccc(-c3ccccc3Oc3ccnc(C(F)(F)F)n3)cc2F)cn1 [Example 548, 5-(3-Fluoro-2′-{[2-(trifluoromethyl)pyrimidin-4-yl]oxy}biphenyl-4-yl)pyrimidin-2-amine]
IC50 [1, 3]: 741 nM | Ki ([2]; wild type FLAP, HTRF format): 467 nM

Nc1ncc(-c2ccc(-c3ccc(C(F)(F)F)cc3S(=O)(=O)NCCO)cc2F)cn1 [Example 326, 4′-(2-Aminopyrimidin-5-yl)-3′-fluoro-N-(2-hydroxyethyl)-4-(trifluoromethyl)biphenyl-2-sulfonamide]
IC50 [1, 4]: 29 nM | Ki [2, 5]: 3 nM

CS(=O)(=O)N1CCN(S(=O)(=O)c2ccccc2-c2ccc(-c3cnc(N)cn3)c(F)c2)CC1 [Example 56, 5-(3-Fluoro-2′-{[4-(methylsulfonyl)piperazin-1-yl]sulfonyl}biphenyl-4-yl)pyrazin-2-amine]
IC50 [1, 4]: 3520 nM | Ki [2, 5]: 11 nM

C[C@H](CO)NS(=O)(=O)c1ccccc1-c1ccc(-c2cnc(N)nc2)nc1 [Example 694, 2-[6-(2-Aminopyrimidin-5-yl)pyridin-3-yl]-N-[(1R)-2-hydroxy-1-methylethyl]benzenesulfonamide]
IC50 [1, 3]: 1010 nM | Ki ([2]; wild type FLAP, HTRF format): 676 nM

CCC(C)(C)NS(=O)(=O)c1ccccc1-c1ccc(-c2cnc(N)cn2)c(F)c1 [Example 12, 4′-(5-Aminopyrazin-2-yl)-N-(1,1-dimethylpropyl)-3′-fluorobiphenyl-2-sulfonamide]
IC50 [1, 4]: 21 nM | Ki [2, 5]: 2 nM

CC(C)(C)NS(=O)(=O)c1ccccc1-c1ccc(-c2nnc(N)s2)c(F)c1 [Example 438, 4′-(5-Amino-1,3,4-thiadiazol-2-yl)-N-(tert-butyl)-3′-fluoro-[1,1′-biphenyl]-2-sulfonamide]
IC50 [1, 3]: 17 nM | Ki ([2]; wild type FLAP, HTRF format): 1 nM

Nc1ncc(-c2ccc(-c3ccccc3S(=O)(=O)N3CCCC(CO)C3)cc2F)cc1F (racemic) [Example 672, (1-((4′-(6-Amino-5-fluoropyridin-3-yl)-3′-fluoro-[1,1′-biphenyl]-2-yl)sulfonyl)piperidin-3-yl)methanol]
IC50 [1, 3]: 196 nM | Ki ([2]; wild type FLAP, HTRF format): 13.7 nM

Nc1cnc(-c2ccc(-c3ccccc3CS(=O)(=O)N3CC(O)C3)cc2F)cn1 [Example 222, 1-({[4′-(5-Aminopyrazin-2-yl)-3′-fluorobiphenyl-2-yl]methyl}sulfonyl)azetidin-3-ol formic acid salt]
IC50 [1, 4]: 638 nM | Ki [2, 5]: 118 nM

Nc1ncc(-c2ccc(-c3ccccc3Sc3ncccn3)cc2F)cn1 [Example 332, 5-[3-Fluoro-2′-(pyrimidin-2-ylsulfanyl)biphenyl-4-yl]pyrimidin-2-amine hydrochloride]
IC50 [1, 4]: 125 nM | Ki [2, 5]: 65 nM

COc1c(-c2ccccc2S(C)(=O)=O)ccc(-c2cnc(N)cn2)c1F [Example 835, 5-[3-Fluoro-2-methoxy-2′-(methylsulfonyl)biphenyl-4-yl]pyrazin-2-amine]
IC50 [1, 3]: 417 nM | Ki ([2]; wild type FLAP, HTRF format): ~354 nM

N#CCOc1ccccc1-c1ccc(-c2cnc(N)cn2)c(F)c1 [Example 642, {[4′-(5-Aminopyrazin-2-yl)-3′-fluorobiphenyl-2-yl]oxy}acetonitrile]
IC50 [1, 3]: 981 nM | Ki ([2]; wild type FLAP, HTRF format): 78.8 nM

CC(C)S(=O)(=O)c1ncccc1-c1ccc(-c2cnc3[nH]ccc3c2)c(F)c1 [Example 826, 5-(2-Fluoro-4-(2-(isopropylsulfonyl)pyridine-3-yl)phenyl)-1H-pyrrolo[2,3-b]pyridine]
IC50 [1, 3]: 19.9 nM | Ki ([2]; wild type FLAP, HTRF format): 0.7 nM

CC(C)(C)NS(=O)(=O)c1ccccc1-c1ccc(-c2cnc(N)c(C(F)(F)F)c2)c(F)c1 [Example 452, 4′-[6-Amino-5-(trifluoromethyl)pyridin-3-yl]-N-tert-butyl-3′-fluorobiphenyl-2-sulfonamide trifluoroacetic acid salt]
IC50 [1, 3]: 1950 nM | Ki ([2]; read-out: FLAP Binding wild type HTRF Ki): 81 nM

CC(C)CNS(=O)(=O)c1ccccc1-c1ccc(-c2cnc(N)nc2)c(F)c1 [Example 294, 4′-(2-Aminopyrimidin-5-yl)-3′-fluoro-N-(2-methylpropyl)biphenyl-2-sulfonamide trifluoroacetic acid salt]
IC50 [1, 4]: 248 nM | Ki [2, 5]: 2 nM

Nc1cnc(-c2ccc(-c3ccccc3S(=O)(=O)NC[C@H](O)c3ccccc3)cc2F)cn1 [Example 117, (R)-4′-(5-Aminopyrazin-2-yl)-3′-fluoro-N-(2-hydroxy-2-phenylethyl)-[1,1′-biphenyl]-2-sulfonamide]
IC50 [1, 4]: 7 nM | Ki [2, 5]: 1 nM

CC1(NS(=O)(=O)c2ccccc2-c2ccc(-c3ccc(N)nc3)c(F)c2)CCC1 [Example 353, 4′-(6-Aminopyridin-3-yl)-3′-fluoro-N-(1-methylcyclobutyl)-[, 1′-biphenyl]-2-sulfonamide]
IC50 [1, 4]: 20 nM | Ki [2, 5]: 1 nM

CC(=O)NCCNS(=O)(=O)c1ccccc1-c1ccc(-c2cnc(N)cn2)c(F)c1 [Example 155, N-[2-({[4′-(5-Aminopyrazin-2-yl)-3′-fluorobiphenyl-2-yl]sulfonyl}amino)ethyl]acetamide]
IC50 [1, 4]: 103 nM | Ki [2, 5]: 12 nM

Nc1cnc(-c2ccc(-c3ccccc3SCCNC(=O)c3ccccc3)cc2F)cn1 [Example 204, N-(2-{[4′-(5-Aminopyrazin-2-yl)-3′-fluorobiphenyl-2-yl]sulfanyl}ethyl)benzamide]
IC50 [1, 4]: 128 nM | Ki [2, 5]: 4 nM
